Results from US20130231305A1, “Method of Modulating Protein 14-3-3 Functionality By Facilitating or Inhibiting Phosphorylation” (Medvet Science Pty. Ltd., priority 2010, published 2013).

What was measured:
14-3-3ζ [1] = molecular target: T1, 14-3-3ζ (Homo sapiens, UniProt P63104); assay: 14-3-3 phosphorylation by PKA catalytic subunit (autoradiography); type: biochemical; conditions: TMA compounds at 125 μM or 62.5 μM in 0.1% ethanol; P81 scintillation counting or autoradiography
T1 construct: made in house
T1 sequence (P63104 1-245): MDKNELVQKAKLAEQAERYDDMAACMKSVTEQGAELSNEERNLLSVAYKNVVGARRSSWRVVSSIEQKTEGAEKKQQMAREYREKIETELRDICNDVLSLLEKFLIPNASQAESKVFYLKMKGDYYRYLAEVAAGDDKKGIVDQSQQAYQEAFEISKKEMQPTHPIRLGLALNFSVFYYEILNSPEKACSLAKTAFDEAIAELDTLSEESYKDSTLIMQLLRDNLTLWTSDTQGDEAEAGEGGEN

Jurkat cells = assay: Jurkat cell apoptosis (TMRE staining, NucView caspase activity); type: cell-based; conditions: TMAs, 16 hours incubation
Source text: (A) Immunoblotting of lysates from either parental Jurkat cells (Jurkat) or cells transduced with lentivirus encoding either wild type (Wt) or S58A 14-3-3ζ-Myc with either an anti-14-3-3ζ specific antibody (upper panel) or an anti-pan 14-3-3 antibody (middle panel) to compare the expression level of transduced protein. Myc immunoprecipitates were also immunoblotted with an anti-phospho 14-3-3 binding site antibody (lower panel) to detect proteins associated with 14-3-3ζ-Myc. Endogenous 14-3-3 is indicated by an open arrow and exogenous 14-3-3ζ-Myc with a closed arrow. (B) Lysates from either wild type (Wt) or S58A 14-3-3ζ-Myc expressing Jutkat cells were subjected to in vitro PKA phosphorylation in the presence (+) or absence (−) of […] and the samples immunoblotted after SDS-PAGE separation With either anti-Myc antibody (upper panel), anti-14-3-3ζ antibody (middle panel) or anti-phospho Ser58 14-3-3ζ antibody (lower panel). (C) Serum-starved Jurkat cells were treated with 2 μM FTY720 for 4 h prior to staining with TMRE and NucView™. Forward- versus side-scatter plots (FS versus SS) show the viable cell populations for FTY720 and EtOH (vehicle) treated cells which are analysed in the lower histograms for caspase activity (NucView™) versus ΔΨM (TMRE). (D and E) Jurkat cell lines expressing either wild type or S58A 14-3-3ζ-Myc by lentiviral transduction were serum-starved for 2 h and treated with either 0.1% ethanol vehicle alone (EtOH), 2 μM dimethyl-sphingosine (DMS), or 2 μM FTY720. Cells were analysed by TMRE staining at 4 h (D) or at the time points indicated (E). (D) Representative analyses of TMRE staining with forward- versus side-scatter plots inset to show the similarity in cell populations. (E) Graphical representation of TMRE analysis over time with open symbols representing vehicle (0.1% EtOH) treated cells and closed symbols representing FTY720 treated cells. […]
FIG. 11. […] Effect of TMAs on Jurkat cells after 16 hours incubation assessed by ΔΨM (TMRE) and caspase 3 activity (NucView™) analysis. […] Forward-side-scatter histograms showing cell viability are inset and caspase 3 activity as assessed by NucView™ analysis of viable cells shown. E. Examples of TMA-derivatives of FTY720 that will be analysed for effects on 14-3-3 dimer stability and apoptosis.
Having confirmed appropriate expression and behaviour of Myc-tagged wild type and S58A 14-3-3ζ in the Jurkat lines, these cells were utilised in functional studies to determine the effect of S58A 14-3-3ζ expression on cell survival in response to sphingosine analogues. […] Intriguingly, Jurkat cells expressing S58A 14-3-3ζ-Myc consistently underwent commitment to apoptosis (as detected by the loss of TMRE staining) more slowly than those expressing wild type 14-3-3ζ-Myc (FIG. 8D).

PKCδCat-HA = molecular target: T2, PKCδCat-HA (Homo sapiens, UniProt Q05655); assay: PKC kinase activity assay with Ser25 peptide substrate; type: biochemical; conditions: 10 μM GF109203X
T2 construct: recreated exactly the N-terminus of the caspase-3 cleaved protein; additional initiator methionine (N); expressed in transfected cells; host or cells: COS cells, anti-HA immunoprecipitate
Experimental: FIG. 5 is an image depicting that DMS is required for phosphorylation of 14-3-3ζ by PKCδCat but not for activation of the kinase. COS cells were transfected with either an empty expression construct (Mock) or one encoding a HA-tagged truncated form of PKCδ corresponding to the caspase-3 cleaved protein (PKCδCat-HA). 20 hours after transfection the cells were lysed and PKCδCat-HA was immunoprecipitated using an anti-HA antibody. (A) PKC assays were carried out on the immunoprecipitates from mock (open bars) and PKCδCat-HA (shaded bars) expressing cells using Ser25 peptide as substrate with [^32P]γ-ATP in the presence or absence of 100 μM DMS (delivered in 0.1% ethanol) or 10 μM of GF109203X (GFX), the PKC inhibitor. The values represent means±S.E. of triplicate determinations. (B) PKCδCat-HA immunoprecipitates were incubated with recombinant 14-3-3ζ and [^32P]γ-ATP in the presence or absence of DMS or GF109203X (GFX). Phosphorylated 14-3-3 was detected by autoradiography after separation of SDS-PAGE (upper panel). The gel was also coomassie stained to show equal loading of 14-3-3 protein (lower panel). […]
Equal amounts of PKCδCat-HA immunoprecipitate were used to assay for PKC kinase activity, or to phosphorylate recombinant 14-3-3. […] Following incubation, reactions were separated on 12.5% SDS-PAGE, coomassie stained and 14-3-3 phosphorylation analysed by autoradiography.

14-3-3ζ [2] = molecular target: T1, 14-3-3ζ; assay: 14-3-3 phosphorylation by PKA catalytic subunit (autoradiography); type: biochemical; conditions: 50 μM lipid delivered in 0.1% ethanol
Experimental: 14-3-3ζ (wild-type or S58A mutant) was incubated with the catalytic subunit of PKA in the presence (+) or absence (−) of 50 μM sphingosine (A) or DMS (B) delivered in 0.1% ethanol. Phosphorylated 14-3-3ζ was detected by autoradiography.
The assay was carried out by incubating 14-3-g (0.5 μg) with catalytic subunit of PKA (0.2 Units) with the indicated concentration of DMS delivered in 0.1% ethanol. Reactions were separated on SDS-PAGE and phosphorylated protein detected by autoradiography. […] (B) 14-3-3ζ was incubated with the catalytic subunit of PKA and 50 μM D-erythro-sphingosine (Sph), D-erythro-trimethyl-sphingosine (TMS), D-erythro-dihydro-sphingosine (DHS), phyto-sphingosine (PSph), D-erythro-sphingosine-1-phosphate (SIP), C2-ceramide (C2-Cer), sphingomyelin (SM), spermine (Sper) or linoleic acid (LA), all delivered in 0.1% ethanol. Phosphorylated 14-3-3ζ was detected by autoradiography.
Substrate 14-3-3 (either 0.5 μg of purified recombinant 14-3-3, a […] of fractions from gel filtration or immunoprecipitates from 14-3-3ζ-Myc transfected COS cells) were added to reaction mixture comprising 0.2 Units of the PKA catalytic subunit, in the presences or absence of sphingolipid (delivered in 0.1% v/v ethanol) in PICA reaction buffer (20 mM MOPS, pH 7.4, 20 mM β-glycerol phosphate, 4 mM EGTA, 1 mM Na3VO4, 60 mM MgCl2, 1 mM DTT, 500 μM ATP, 2.4 μCi [^32P]γ-ATP). Reactions were incubated at 37° C. for 15 minutes. After incubation, reactions were separated on 12.5% SDS-PAGE, coomassie stained and 14-3-3 phosphorylation analysed by autoradiography.

T2 sequence (Q05655 330-676 limits assumed): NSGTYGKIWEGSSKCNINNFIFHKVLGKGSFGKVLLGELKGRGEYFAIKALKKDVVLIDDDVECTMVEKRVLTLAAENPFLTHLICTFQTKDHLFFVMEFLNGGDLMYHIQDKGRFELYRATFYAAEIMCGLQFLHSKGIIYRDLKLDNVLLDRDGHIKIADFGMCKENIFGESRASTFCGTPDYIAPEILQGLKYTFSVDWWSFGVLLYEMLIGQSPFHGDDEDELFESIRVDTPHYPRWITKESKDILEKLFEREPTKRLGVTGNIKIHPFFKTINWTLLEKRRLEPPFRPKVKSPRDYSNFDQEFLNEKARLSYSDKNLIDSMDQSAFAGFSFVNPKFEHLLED

Compound | phosphorylation of 14-3-3ζ on Ser58 by PKA catalytic subunit (14-3-3ζ [2]) | other results
CCCCCCCCCCCCCC[N+](C)(C)C [C14] |  | 14-3-3 phosphorylation by PKA catalytic subunit (14-3-3ζ [1]): capable of facilitating 14-3-3 phosphorylation
CCCCCCCCCCCCCCCC[N+](C)(C)C.[Br-] [C16, hexadecyl-trimethyl ammonium] |  | 14-3-3 phosphorylation by PKA catalytic subunit (14-3-3ζ [1]): capable of facilitating 14-3-3 phosphorylation
CCCCCCCCCCCCCCCC[N+](C)(C)C.[Br-] [CTAB] |  | apoptosis of Jurkat cells (ΔΨM by TMRE, caspase 3 by NucView) (Jurkat cells): apoptosis induced by CTAB
CN(C)CCCn1cc(C2=C(c3c[nH]c4ccccc34)C(=O)NC2=O)c2ccccc21 [GF109203X] |  | effect on PKCδCat kinase activity (PKCδCat-HA): completely inhibited
CCCCCCCCCCCCC/C=C/[C@@H](O)[C@H](CO)NC(C)=O [ceramide, C2-ceramide] | did not support the phosphorylation | 
CCCCCCCCCCCCCCC[C@@H](O)[C@@H](N)CO [dihydro-sphingosine, D-erythro-dihydro-sphingosine] | allowed phosphorylation | 
CCCCC/C=C\C/C=C\CCCCCCCC(=O)O [linoleic acid] | did not support the phosphorylation | 
CCCCCCCCCCCCCC[C@@H](O)[C@@H](O)[C@@H](N)CO [phyto-sphingosine] | allowed phosphorylation | 
NCCCNCCCCNCCCN [spermide, spermine] | did not support the phosphorylation | 
CCCCCCCCCCCCC/C=C/[C@@H](O)[C@H](COP(=O)([O-])OCC[N+](C)(C)C)NC(=O)CCCCCCCCCCCCCCCCC [sphingomyelin] | did not support the phosphorylation | 
CCCCCCCCCCCCC/C=C/[C@@H](O)[C@@H](N)COP(=O)(O)O [sphingosine-1-phosphate, D-erythro-sphingosine-1-phosphate] | did not support the phosphorylation | 
CCCCCCCCCCCCC/C=C/[C@@H](O)[C@H](CO)[N+](C)(C)C [trimethyl-sphingosine, D-erythro-trimethyl-sphingosine] | allowed phosphorylation | 
